Test results from patent US12582721B2, “Molybdenum-based feed supplement for bees” (UNIVERSITE DE VERSAILLES—SAINT-QUENTIN-EN-YVELINES, priority 2020, dated 2026).

Tests used:
[1] = system: families of European domestic bees; assay: 2nd test in the hives: power of the bee family; format: in vivo, Apis mellifera carpatica; conditions: overall dose 2 mg/hive, 10 hives
Experimental: The power of the bee colony represents the number of bees present in the honeycomb at the time of the assessment. The assessment is performed three times per year: at the spring visit (March-April), at the end of spring (20-31 May) and at the visit in autumn (September). After these three assessments, the average power of the bee family is determined. The amount of bees (kg) is determined by multiplying the number of intervals between the frames, uniformly occupied by the bees, by the coefficient 0.25 for the standard […] frame (435×300 mm) and by 0.2 for the standard Langstroth frame (435×230 mm). The 2nd test was performed in the same apiary the following year. Feeding with the complex of the invention took place in spring. The biological tests were monitored up to the month of September. The molecules tested, their concentration in solution and their annual overall doses are listed below: • 1. […] The concentration of the complex in syrup: 1.5×10^-7 mol/L. Overall product dose: 2 mg/colony • 2. […] Overall complex dose: 6 mg/colony • 4. LiCH3COO·H2O for comparison, abbreviated as Li-Ac • The feeding is carried out with 2000 g of candy containing 0.8 mg of product then 6 to 7 L of syrup containing 0.2 mg/L of product. The concentration of product in the syrup: 2.36×10^-6 mol/L that is 1.67×10^-5 g/L. Overall product dose: 2 mg/colony

Varroa destructor = assay: 2nd test in the hives: degree of infestation of bees with Varroa; format: in vivo; conditions: for Degree of infestation with Varroa: 100 = 2.32 mite/10 g of bees; for Degree of infestation with Varroa, change versus batch I: value in brackets
From the text: The assessment consists in counting the number of Varroa on a sample of adult bees. The value from this count is used as an index for monitoring the level of parasitism in the colony. The method uses icing sugar and a “shaker” jar made of transparent glass with a capacity of 1 kg. The cover is a mesh made of galvanized steel of the type placed at the bottom of the hive, with a mesh size of 3 mm. The mesh allows Varroa mites to pass through but retains the honey bees. The method is implemented according to the following steps: 40 to 50 g of honey bees are collected in the jar (approximately 400 bees), 100 g of icing sugar is added and the shaker jar is rolled for 1 minute so as to cover every bee in icing sugar. The icing sugar then makes it possible to separate the Varroa mites from the body of the host bee so that they drop off. Leave to rest for 1 minute: bees have a delousing behavior, which helps the Varroa mites to drop off. The icing sugar is sieved over a sieve which makes it possible to retain the Varroa mites and then count them. The result is given as the number of mites per 10 g of bees (approximately 100 bees) and can be expressed as a %. This rate is indicative of the Varroa burden in the colony. […] A moderate rate is between 2 and 5 and, in this case, treatment of the colonies must be scheduled. Finally, a rate greater than 5, requires emergency treatment of the colony. Our tests give a result of around 2% for worker bees. The 2nd test was performed in the same apiary the following year. Feeding with the complex of the invention took place in spring. The biological tests were monitored up to the month of September. The molecules tested, their concentration in solution and their annual overall doses are listed below: • 1. […] The concentration of the complex in syrup: 1.5×10^-7 mol/L. Overall product dose: 2 mg/colony • 2. […] Overall complex dose: 6 mg/colony • 4. LiCH3COO·H2O for comparison, abbreviated as Li-Ac • The feeding is carried out with 2000 g of candy containing 0.8 mg of product then 6 to 7 L of syrup containing 0.2 mg/L of product. The concentration of product in the syrup: 2.36×10^-6 mol/L that is 1.67×10^-5 g/L. Overall product dose: 2 mg/colony

[2] = system: healthy Madin-Darby canine kidney epithelial cells of the MDCK line; assay: Resazurin cell proliferation test, MDCK cells; format: cell-based; conditions: healthy cells; IC50 equal to and greater than 100 μM considered no activity
From the text: For cell culture, human cervical epithelial cells of the HeLa line, human epithelial pancreatic adenocarcinoma cells of the BxPC-3 line and healthy Madin-Darby canine kidney epithelial cells of the MDCK line were used in this study. The Resazurin cell proliferation test was applied according to the literature (S. Anoopkumar-Dukie, J. B. Carey, T. Conere, E. O'Sullivan, F. N. van Pelt, A. Allshire, Br J Radiol 2005, 78, 945, DOI: 10.1259/bjr/54004230). As an indicator of the effectiveness of the experimental compounds on cell proliferation, the median inhibitory concentration (IC50) was used. The lower the IC50 value, the higher the activity (in this case, the cytotoxicity).
Five formula I complexes were tested in this study in comparison to two reference anti-cancer compounds (“Cisplatin” and Doxorubicin complex).

| SMILES | Power of the bee family [1] | Degree of infestation with Varroa (Varroa destructor; overall dose 2 mg/hive) | Degree of infestation with Varroa, change versus batch I (Varroa destructor; overall dose 2 mg/hive) [%] | IC50, MDCK [2] | Degree of infestation with Varroa (Varroa destructor; overall dose 6 mg/hive) | Degree of infestation with Varroa, change versus batch I (Varroa destructor; overall dose 6 mg/hive) [%] | IC50 [2] [µM] |
| --- | --- | --- | --- | --- | --- | --- | --- |
| CC(=O)[O-].[Li+] [Li—Ac, LiCH3COO·H2O, reference compound] | 97.5 % relative to batch I | 69.0 % relative to batch I | −31 |  |  |  |  |
| O.O.O.O.O.O.O=C([O-])CN(CCN(CC(=O)[O-])CC(=O)[O-])CC(=O)[O-].[Li+].[Li+].[O]=[Mo+]12[O][Mo+]1(=[O])[O]2 [Li—Mo2O4-EDTA, Li2[Mo2O4 (EDTA)]·6H2O] | 120 % relative to batch I | 52.6 % relative to batch I | −47.4 | Inactive | 38.4 % relative to batch I | −62.6 |  |
| O.O.O.O.O.O=C([O-])CN(CCN(CC(=O)[O-])CC(=O)[O-])CC(=O)[O-].[Na+].[Na+].[O]=[Mo+]12[O][Mo+]1(=[O])[O]2 [Na—Mo2O4-EDTA, Na2[Mo2O4 (EDTA)]·5H2O] |  |  |  | Inactive |  |  |  |
| O=C([O-])CN(CCN(CC(=O)[O-])CC(=O)[O-])CC(=O)[O-].[O]=[Mo+]12[O][Mo+]1(=[O])[O]2.c1ccc([P+](c2ccccc2)(c2ccccc2)c2ccccc2)cc1.c1ccc([P+](c2ccccc2)(c2ccccc2)c2ccccc2)cc1 [PPh4—Mo2O4-EDTA, (PPh4)2[Mo2O4 (EDTA)]·2.5H2O] | 120 % relative to batch I | 60.8 % relative to batch I | −39.2 |  |  |  | 60.7 ± 12.1 |
